Assay results taken from patent publication US20260108521A1, “GSPT1 DEGRADERS, COMPOSITIONS COMPRISING THE DEGRADER, AND METHODS OF USING THE SAME” (BIOFRONT LTD, priority 2022, published 2026).

Experiments:
GSPT1 protein = target: T1, GSPT1 protein (Homo sapiens, UniProt P15170+Q96SW2); experiment: GSPT1 degradation assay (western blot) in HL-60 cells; assay type: cell-based; conditions: GSPT1 protein level, 2h incubation, western blot normalized to beta-Actin; for inhibition at 0.1 µM: 0.1 μM compound; for inhibition at 1 µM: 1 μM compound
T1 construct: endogenous in cells; host or cells: HL-60 cells
T1 sequence (P15170 whole entry): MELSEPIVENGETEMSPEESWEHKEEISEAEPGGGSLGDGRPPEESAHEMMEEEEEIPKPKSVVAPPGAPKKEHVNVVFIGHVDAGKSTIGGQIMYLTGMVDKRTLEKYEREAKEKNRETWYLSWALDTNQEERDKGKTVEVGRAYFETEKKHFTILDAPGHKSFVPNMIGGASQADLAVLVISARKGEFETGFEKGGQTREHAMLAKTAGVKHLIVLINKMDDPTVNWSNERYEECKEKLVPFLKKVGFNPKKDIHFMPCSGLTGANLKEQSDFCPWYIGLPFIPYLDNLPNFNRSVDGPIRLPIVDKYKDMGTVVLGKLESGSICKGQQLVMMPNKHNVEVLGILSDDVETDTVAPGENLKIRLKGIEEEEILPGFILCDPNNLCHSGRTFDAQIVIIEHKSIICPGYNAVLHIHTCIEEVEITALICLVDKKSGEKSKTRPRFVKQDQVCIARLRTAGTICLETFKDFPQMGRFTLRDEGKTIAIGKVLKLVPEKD
T1 sequence (Q96SW2 whole entry): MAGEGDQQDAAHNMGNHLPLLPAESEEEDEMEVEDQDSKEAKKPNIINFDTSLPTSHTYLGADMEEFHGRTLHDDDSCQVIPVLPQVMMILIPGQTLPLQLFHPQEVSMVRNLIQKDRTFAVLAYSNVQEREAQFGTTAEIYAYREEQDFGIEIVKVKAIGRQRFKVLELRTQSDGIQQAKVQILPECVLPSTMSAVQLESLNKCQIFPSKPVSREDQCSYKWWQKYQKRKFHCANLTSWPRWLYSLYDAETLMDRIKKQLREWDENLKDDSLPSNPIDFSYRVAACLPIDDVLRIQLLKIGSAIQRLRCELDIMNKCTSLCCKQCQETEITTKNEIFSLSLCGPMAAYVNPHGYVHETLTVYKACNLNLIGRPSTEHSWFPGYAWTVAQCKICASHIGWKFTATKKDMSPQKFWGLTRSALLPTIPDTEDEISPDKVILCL
T1 sequence (Q16531 whole entry partner): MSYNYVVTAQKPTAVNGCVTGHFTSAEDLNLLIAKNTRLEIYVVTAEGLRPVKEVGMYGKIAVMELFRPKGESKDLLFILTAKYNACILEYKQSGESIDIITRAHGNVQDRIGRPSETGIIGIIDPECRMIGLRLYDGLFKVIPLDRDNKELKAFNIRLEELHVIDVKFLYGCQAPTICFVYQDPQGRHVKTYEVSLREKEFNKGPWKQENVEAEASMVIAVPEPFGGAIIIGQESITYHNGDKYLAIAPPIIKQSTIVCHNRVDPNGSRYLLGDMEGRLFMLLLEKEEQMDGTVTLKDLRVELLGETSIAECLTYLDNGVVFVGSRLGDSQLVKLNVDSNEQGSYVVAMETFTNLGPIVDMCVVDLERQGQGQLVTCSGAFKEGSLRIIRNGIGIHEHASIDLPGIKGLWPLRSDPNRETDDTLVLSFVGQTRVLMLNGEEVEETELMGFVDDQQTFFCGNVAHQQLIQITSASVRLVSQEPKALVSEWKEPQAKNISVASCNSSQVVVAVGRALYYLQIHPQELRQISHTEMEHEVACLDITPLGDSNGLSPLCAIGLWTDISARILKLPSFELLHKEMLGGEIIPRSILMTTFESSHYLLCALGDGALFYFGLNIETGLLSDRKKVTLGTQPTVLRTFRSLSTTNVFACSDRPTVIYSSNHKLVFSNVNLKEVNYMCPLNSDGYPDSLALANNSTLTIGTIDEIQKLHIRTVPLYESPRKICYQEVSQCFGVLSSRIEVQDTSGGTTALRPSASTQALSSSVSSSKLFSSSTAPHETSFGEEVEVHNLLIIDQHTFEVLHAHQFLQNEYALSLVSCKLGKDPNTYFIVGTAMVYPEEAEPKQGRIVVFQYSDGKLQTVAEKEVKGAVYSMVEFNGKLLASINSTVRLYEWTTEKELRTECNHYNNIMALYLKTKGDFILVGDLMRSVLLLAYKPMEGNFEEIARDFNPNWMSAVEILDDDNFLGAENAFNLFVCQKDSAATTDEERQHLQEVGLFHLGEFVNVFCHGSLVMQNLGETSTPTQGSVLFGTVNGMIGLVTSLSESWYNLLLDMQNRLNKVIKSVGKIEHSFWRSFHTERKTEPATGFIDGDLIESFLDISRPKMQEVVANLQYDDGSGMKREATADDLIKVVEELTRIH
Method: HL-60 cells (4×10^^6 cells/well) were seeded in 6-well culture plate (Costar, 3516) and treated with a variety of concentrations of test compound. After 2h incubation, cells were collected and lysed. The protein concentration was determined by BCA protein assay kit from Thermo (23227). The GSPT1 protein level was determined by western blots, using GSPT1 polyclonal antibody. Proteins were loaded into each well of the pre-casting gels and subjected to electrophoretic separation by SDS-PAGE. The protein resolved by SDS-PAGE were transferred to PVDF, blocked by 5% skim milk and probed with anti-GSPT1 antibody (Proteintech, 10763-1-AP) or anti-β-actin antibody (CST, 3700S), using following standard western blotting procedure. Blots intensities were quantified using ImageJ software and the intensity of GSPT1 bands were normalized to beta-Actin bands, respectively. The GSPT1 degradation results were then calculated. Reported compound C84971 (see WO2021126974A1 and WO2021126973A1) was used as a reference.

HL-60 cells = experiment: Cell viability assay (CellTiter-Glo); assay type: cell-based; conditions: Homo sapiens, 72 h incubation, 6-point serial dilution
Method: HL-60 cells were seeded at a density of 7000 cells per well in 96-well culture plates (Corning 3903) with IMDM and treated with test compounds following a 6-point serial dilution. RPMI 1640 (0.1% DMSO) was used as control for each well. After 72 h incubation, cell viability was determined using the CellTiter-Glo assay kit (Promega, G9242) according to the manufacturer's instructions. The dose-response curves were determined and IC50 values were calculated using the GraphPad Prism software following a nonlinear regression method.

SMILES: O=C1CCC(N2C(=O)c3ccc(N4CC(CCN5CCCN(c6cccc(Br)c6)C5=O)C4)cc3C2=O)C(=O)N1 (stereo not drawn) [Compound 10, 5-(3-(2-(3-(3-bromophenyl)-2-oxotetrahydropyrimidin-1(2H)-yl)ethyl)azetidin-1-yl)-2-(2,6-dioxopiperidin-3-yl)isoindoline-1,3-dione]
- inhibition at 0.1 µM (GSPT1 protein): 40%
- inhibition at 1 µM (GSPT1 protein): 45%
- IC50 (HL-60 cells): 0.144 µM

SMILES: O=C1CCC(N2C(=O)c3ccc(N4CC(CCN5CCN(c6ccccc6)C5=O)C4)cc3C2=O)C(=O)N1 (stereo not drawn) [Compound 12, 2-(2,6-dioxopiperidin-3-yl)-5-(3-(2-(2-oxo-3-phenylimidazolidin-1-yl)ethyl)azetidin-1-yl)isoindoline-1,3-dione]
- inhibition at 0.1 µM (GSPT1 protein): 0%
- inhibition at 1 µM (GSPT1 protein): 0%
- IC50 (HL-60 cells): > 1 µM

SMILES: O=C1CCC(N2C(=O)c3ccc(N4CC(CCN5CCCN(c6cccc(-c7cnccc7Cl)c6)C5=O)C4)cc3C2=O)C(=O)N1 (stereo not drawn) [Compound 8, 5-(3-(2-(3-(3-(4-chloropyridin-3-yl)phenyl)-2-oxotetrahydropyrimidin-1(2H)-yl)ethyl)azetidin-1-yl)-2-(2,6-dioxopiperidin-3-yl)isoindoline-1,3-dione]
- inhibition at 0.1 µM (GSPT1 protein): 70%
- inhibition at 1 µM (GSPT1 protein): 63%
- IC50 (HL-60 cells): 0.196 µM

SMILES: O=C1CCC(N2C(=O)c3cc(F)c(N4CCC(CCN5CCCN(c6cccc(-c7cnc8[nH]cc(C9CC9)c8c7Cl)c6)C5=O)CC4)cc3C2=O)C(=O)N1 (stereo not drawn) [Compound B, 5-(4-(2-(3-(3-(4-chloro-3-cyclopropyl-1H-pyrrolo[2,3-b]pyridin-5-yl)phenyl)-2-oxotetrahydropyrimidin-1(2H)-yl)ethyl)piperidin-1-yl)-2-(2,6-dioxopiperidin-3-yl)-6-fluoroisoindoline-1,3-dione]
- inhibition at 0.1 µM (GSPT1 protein): 45%
- inhibition at 1 µM (GSPT1 protein): 75%
- IC50 (HL-60 cells): 0.122 µM

SMILES: O=C1CCC(N2C(=O)c3ccc(N4CC(CCN5CCCN(c6cccc(-c7cnc8ccccc8c7)c6)C5=O)C4)cc3C2=O)C(=O)N1 (stereo not drawn) [Compound 23, 2-(2,6-dioxopiperidin-3-yl)-5-(3-(2-(2-oxo-3-(3-(quinolin-3-yl)phenyl)tetrahydropyrimidin-1(2H)-yl)ethyl)azetidin-1-yl)isoindoline-1,3-dione]
- inhibition at 0.1 µM (GSPT1 protein): 33%
- inhibition at 1 µM (GSPT1 protein): 45%
- IC50 (HL-60 cells): > 1 µM

SMILES: O=C1CCC(N2C(=O)c3ccc(N4CCC(CN5CCCN(c6ccc7ncccc7c6)C5=O)CC4)cc3C2=O)C(=O)N1 (stereo not drawn) [Compound 11, 2-(2,6-dioxopiperidin-3-yl)-5-(4-((2-oxo-3-(quinolin-6-yl)tetrahydropyrimidin-1(2H)-yl)methyl)piperidin-1-yl)isoindoline-1,3-dione]
- inhibition at 0.1 µM (GSPT1 protein): 14%
- inhibition at 1 µM (GSPT1 protein): < 5%
- IC50 (HL-60 cells): > 1 µM

SMILES: Nc1ccc(-c2cccc(N3CCCN(CC4CCN(c5ccc6c(c5)C(=O)N(C5CCC(=O)NC5=O)C6=O)CC4)C3=O)c2)c(Cl)n1 (stereo not drawn) [Compound 28, 5-[4-({3-[3-(6-amino-2-chloropyridin-3-yl)phenyl]-2-oxo-1,3-diazinan-1-yl}methyl)piperidin-1-yl]-2-(2,6-dioxopiperidin-3-yl)isoindole-1,3-dione]
- inhibition at 0.1 µM (GSPT1 protein): 77%
- inhibition at 1 µM (GSPT1 protein): 78%
- IC50 (HL-60 cells): 0.051 µM

SMILES: CCc1c[nH]c2ccc(-c3cccc(N4CCCN(CCC5CN(c6ccc7c(c6)C(=O)N(C6CCC(=O)NC6=O)C7=O)C5)C4=O)c3)c(Cl)c12 (stereo not drawn) [Compound 26, 5-(3-(2-(3-(3-(4-chloro-3-ethyl-1H-indol-5-yl)phenyl)-2-oxotetrahydropyrimidin-1(2H)-yl)ethyl)azetidin-1-yl)-2-(2,6-dioxopiperidin-3-yl)isoindoline-1,3-dione]
- inhibition at 0.1 µM (GSPT1 protein): 63%
- inhibition at 1 µM (GSPT1 protein): 85%
- IC50 (HL-60 cells): 0.078 µM
